# From patent publication US20250332149A1, “PIPERIDINE COMPOUNDS AND PHARMACEUTICAL COMPOSITIONS” (Lumos Pharma, Inc., priority 2024, published 2025)
# Assay: Phase 1 study Part 1: plasma PK and relative bioavailability of LUM-201 tablets vs capsule
# Assay type: in vivo, human
# Conditions: for % AUCex, Arithmetic Mean / % AUCex, Geometric Mean / Clast, Arithmetic Mean / Clast, Geometric Mean / DNAUC0-inf, Arithmetic Mean / DNAUC0-inf, Geometric Mean / DNAUC0-last, Arithmetic Mean / DNAUC0-last, Geometric Mean / DNCmax, Arithmetic Mean / DNCmax, Geometric Mean / tlag, Median / tlast, Median / λz, Arithmetic Mean / λz, Geometric Mean / DNAUC0-inf, GLS Mean / DNAUC0-last, GLS Mean / DNCmax, GLS Mean: oral, fasted; for DNAUC0-inf, GLS Mean / DNAUC0-last, GLS Mean / DNCmax, GLS Mean: ANOVA
# Excerpt: This study in healthy adult subjects was designed to establish the pharmacokinetic (PK) and pharmacodynamic (PD) profiles for the orally administered test product (coated mini-tablets in a capsule) and reference product (mini-tablet) to evaluate relative bioavailability in Part 1 and to evaluate the food effect on the bioavailability of test product (capsule only) in Part 2.
# This was a single center, open-label, randomized, Phase 1 study in healthy adult subjects. This study consisted of 2 parts: Part 1 was a 4-sequence, 4-treatment, 4 Treatment Periods, crossover study to determine the relative bioavailability of current tablets to new capsule formulations of LUM-201; Part 2 was a 2-sequence, 2-treatment, 2 Treatment Periods, crossover study to evaluate the food effect on the bioavailability of the new capsule formulation of LUM-201. An individual subject was allowed to participate in only 1 part (Part 1 or Part 2) of the study. Forty subjects were planned and enrolled in this study. • Part 1: A total of 28 subjects were planned and enrolled in Part 1. Part 1 consisted of 4 sequences, each having 4 Treatment Periods enrolling 7 subjects (1:1:1:1 ratio). During Treatment Periods 1 through 4, each subject received 4 single oral doses of LUM-201 drug product in a randomized, crossover order. • Part 2: A total of 12 subjects were planned and enrolled in Part 2. Part 2 consisted of 2 sequences, each having 2 Treatment Periods enrolling 6 subjects (1:1 ratio). Each subject received a single oral dose of LUM-201 at each Treatment Period. During Treatment Periods 1 and 2, each subject received 2 single oral doses of LUM-201 in a randomized, crossover order. • On Day 1 of Treatment Period 1, subjects were administered the assigned treatment (A or B) as randomized, followed by a washout of at least 3 days between Treatment Periods 1 and 2. Subjects stayed in-house (not discharged) between the Treatment Periods. • Treatment A was dosed at 85.3 mg capsule formulation of LUM-201 (intact capsule consumed unopened) consumed while subject was in a fasted state with 240 mL of water. • Treatment B was dosed at 85.3 mg capsule formulation of LUM-201 (intact capsule consumed unopened) consumed 30 minutes after start of a high-fat meal with 240 mL of water. • Subjects were discharged from the study center on the morning of Day 3 of Treatment Period 2 after the scheduled study assessments had been completed.
# • Treatment A (reference): five 18 mg oral tablets of LUM-201 were administered under fasted state with 240 mL of water. • Treatment B (test): a single 85.3 mg dose of oral capsule formulation of LUM-201 was administered as a whole capsule under fasted state with 240 mL of water. • Treatment C (test): a single 85.3 mg dose of oral capsule formulation of LUM-201 was administered by dosing capsule contents (dry) under fasted state with 240 mL of water. • Treatment D (test): a single 85.3 mg dose of oral capsule formulation of LUM-201 was mixed (capsule contents) with banana puree (2 teaspoons), followed by 240 mL of water and was ingested within 5 minutes under fasted state (Note: Banana Puree, single serve cup was used [118.3 mL]). […]
# [1] = 85.3 mg capsule, Treatments B, C and D
# [2] = Part 1, Treatment A (reference): five 18 mg tablets (90 mg)
# [3] = Part 1, Treatment B (test): 85.3 mg whole capsule
# [4] = Part 1, Treatment C (test): 85.3 mg capsule contents (dry)
# [5] = Part 1, Treatment D (test): 85.3 mg capsule contents in banana puree
structure (smiles),measurement,setting,value
"CC(C)(N)C(=O)N[C@H](COCc1ccccc1)C(=O)N1CCC2(CC1)CN(S(C)(=O)=O)c1ccccc12 [LUM-201, N-[1(R)-[(1,2-dihydro-1-methanesulfonylspiro[3H-indole-3,4′-piperdin]-yl)carbonyl]-2-(phenylmethyloxy)ethyl]-2-amino-2-methylpropanamide methanesulfonate]","bioequivalence of DNAUC0-last and AUC0-inf to the 90 mg tablet, fasted (Treatment A)",[1],bioequivalent
same,"bioequivalence of DNCmax to the 90 mg tablet dose, fasted (Treatment A)",[1],not bioequivalent
same,"% AUCex, Arithmetic Mean",[2],1.763%
same,"% AUCex, Geometric Mean",[2],1.652%
same,"Clast, Arithmetic Mean",[2],0.8783 ng/mL
same,"Clast, Geometric Mean",[2],0.8225 ng/mL
same,"DNAUC0-inf, Arithmetic Mean",[2],6.998 ng·h/mL/mg
same,"DNAUC0-inf, Geometric Mean",[2],6.247 ng·h/mL/mg
same,"DNAUC0-last, Arithmetic Mean",[2],6.885 ng·h/mL/mg
same,"DNAUC0-last, Geometric Mean",[2],6.137 ng·h/mL/mg
same,"DNCmax, Arithmetic Mean",[2],1.464 ng/mL/mg
same,"DNCmax, Geometric Mean",[2],1.267 ng/mL/mg
same,"tlag, Median",[2],0 h
same,"tlast, Median",[2],36.34 h
same,"λz, Arithmetic Mean",[2],0.0901 h⁻¹
same,"λz, Geometric Mean",[2],0.0886 h⁻¹
same,"DNAUC0-inf, GLS Mean",[2],6.25 ng·h/mL/mg
same,"DNAUC0-last, GLS Mean",[2],6.14 ng·h/mL/mg
same,"DNCmax, GLS Mean",[2],1.27 ng/mL/mg
same,"% AUCex, Arithmetic Mean",[3],1.748%
same,"% AUCex, Geometric Mean",[3],1.630%
same,"Clast, Arithmetic Mean",[3],0.7461 ng/mL
same,"Clast, Geometric Mean",[3],0.7189 ng/mL
same,"DNAUC0-inf, Arithmetic Mean",[3],6.638 ng·h/mL/mg
same,"DNAUC0-inf, Geometric Mean",[3],6.008 ng·h/mL/mg
same,"DNAUC0-last, Arithmetic Mean",[3],6.534 ng·h/mL/mg
same,"DNAUC0-last, Geometric Mean",[3],5.903 ng·h/mL/mg
same,"DNCmax, Arithmetic Mean",[3],1.353 ng/mL/mg
same,"DNCmax, Geometric Mean",[3],1.092 ng/mL/mg
same,"tlag, Median",[3],0.2494 h
same,"tlast, Median",[3],47.93 h
same,"λz, Arithmetic Mean",[3],0.0877 h⁻¹
same,"λz, Geometric Mean",[3],0.086 h⁻¹
same,"DNAUC0-inf, GLS Mean",[3],5.97 ng·h/mL/mg
same,"DNAUC0-last, GLS Mean",[3],5.86 ng·h/mL/mg
same,"DNCmax, GLS Mean",[3],1.09 ng/mL/mg
same,"% AUCex, Arithmetic Mean",[4],1.859%
same,"% AUCex, Geometric Mean",[4],1.673%
same,"Clast, Arithmetic Mean",[4],0.7612 ng/mL
same,"Clast, Geometric Mean",[4],0.7309 ng/mL
same,"DNAUC0-inf, Arithmetic Mean",[4],6.832 ng·h/mL/mg
same,"DNAUC0-inf, Geometric Mean",[4],6.259 ng·h/mL/mg
same,"DNAUC0-last, Arithmetic Mean",[4],6.721 ng·h/mL/mg
same,"DNAUC0-last, Geometric Mean",[4],6.142 ng·h/mL/mg
same,"DNCmax, Arithmetic Mean",[4],1.159 ng/mL/mg
same,"DNCmax, Geometric Mean",[4],1.014 ng/mL/mg
same,"tlag, Median",[4],0 h
same,"tlast, Median",[4],48.07 h
same,"λz, Arithmetic Mean",[4],0.0829 h⁻¹
same,"λz, Geometric Mean",[4],0.0818 h⁻¹
same,"DNAUC0-inf, GLS Mean",[4],6.21 ng·h/mL/mg
same,"DNAUC0-last, GLS Mean",[4],6.10 ng·h/mL/mg
same,"DNCmax, GLS Mean",[4],1.01 ng/mL/mg
same,"% AUCex, Arithmetic Mean",[5],1.932%
same,"% AUCex, Geometric Mean",[5],1.703%
same,"Clast, Arithmetic Mean",[5],0.8723 ng/mL
same,"Clast, Geometric Mean",[5],0.7962 ng/mL
same,"DNAUC0-inf, Arithmetic Mean",[5],7.377 ng·h/mL/mg
same,"DNAUC0-inf, Geometric Mean",[5],6.400 ng·h/mL/mg
same,"DNAUC0-last, Arithmetic Mean",[5],7.254 ng·h/mL/mg
